Data reported in patent US20250129069A1, “TRIAZOLO WRN INHIBITORS” (Nimbus Wadjet, Inc., priority 2023, published 2025).
Where two headings read alike, the source gives them in different places.

What was measured:
[1] = biological target: human Werner helicase (WRN, amino acids 517-1235 with L1074F point mutation) (Homo sapiens (Human), UniProt Q14191, L1074F); test: WRN (BV08) ADP-Glo assay; format: biochemical; settings: human WRN (aa 517-1235, L1074F), read-out: ADP-Glo_hWRN_IC50
Procedure, shortened: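 Untagged WRN 517-1235 (L1074F), Sf9/baculovirus-expressed, 0.15 nM, preincubated 15 min with compound, then 5 μM ATP and 0.1 nM annealed DNA duplex added; 60 min at 25 °C in Bicine pH 7.5, 1 mM MgCl2, 1% DMSO. ADP-Glo luminescence; % inhibition vs DMSO and 20 μM NSC-617145 controls, four-parameter IC50 fit.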

[2] = test system: p21 induction in HCT 116 cells; test: p21 induction in cells (In-Cell Western, p21/GAPDH ratio); format: cell-based; settings: 24 h compound incubation, read-out: p21_EC50
Procedure, shortened: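 HCT 116 cells treated 24 h at 37° C with 11-point, 2-fold dilutions typically from 10 μM, in duplicate. Fixed cells co-stained for p21 (800 nm) and GAPDH (700 nm) by In-Cell Western. p21/GAPDH ratio normalised between DMSO and reference WRN inhibitor controls, and EC50 obtained by nonlinear regression.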

Sequence of human Werner helicase (WRN, amino acids 517-1235 with L1074F point mutation) (Q14191 other isoform, or with tags, fused parts or gaps L1074F (already in the parent)): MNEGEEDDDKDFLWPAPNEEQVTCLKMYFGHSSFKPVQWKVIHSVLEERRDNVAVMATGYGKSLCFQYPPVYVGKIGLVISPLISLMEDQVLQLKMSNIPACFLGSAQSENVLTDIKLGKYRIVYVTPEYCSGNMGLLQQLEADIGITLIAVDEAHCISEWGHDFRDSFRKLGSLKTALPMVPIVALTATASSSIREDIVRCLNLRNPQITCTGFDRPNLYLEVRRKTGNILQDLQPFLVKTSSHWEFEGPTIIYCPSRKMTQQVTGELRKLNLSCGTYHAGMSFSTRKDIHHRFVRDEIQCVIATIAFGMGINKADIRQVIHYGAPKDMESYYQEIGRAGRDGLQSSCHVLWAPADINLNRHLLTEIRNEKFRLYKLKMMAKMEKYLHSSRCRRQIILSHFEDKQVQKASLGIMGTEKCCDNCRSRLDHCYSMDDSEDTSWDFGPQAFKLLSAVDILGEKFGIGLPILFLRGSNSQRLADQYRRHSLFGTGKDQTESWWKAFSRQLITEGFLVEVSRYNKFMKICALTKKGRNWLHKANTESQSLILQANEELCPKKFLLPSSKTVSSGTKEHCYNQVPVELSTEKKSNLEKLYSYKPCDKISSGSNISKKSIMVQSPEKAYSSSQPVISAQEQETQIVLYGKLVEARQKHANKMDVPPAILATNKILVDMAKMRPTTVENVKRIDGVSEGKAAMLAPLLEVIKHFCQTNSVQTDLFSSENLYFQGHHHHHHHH

| Compound | IC50 [1] [nM] | EC50 ([2]; Homo sapiens) [nM] | EC50 [2] [nM] |
| --- | --- | --- | --- |
| CCc1c(N2CCN(C(=O)c3c(OC)ncc(C)c3O)CC2)c(=O)c2nn(-c3ccnc(OC)c3)nc2n1CC(=O)NC1CC2(CC(C)C2)C1 (stereo not shown) [Compound I-103, 2-{5-ethyl-6-[4-(4-hydroxy-2-methoxy-5-methylpyridine-3-carbonyl)piperazin-1-yl]-2-(2-methoxypyridin-4-yl)-7-oxo-2H,4H,7H-[1,2,3]triazolo[4,5-b]pyridin-4-yl}-N-{6-methylspiro[3.3]heptan-2-yl}acetamide] | 5 to 50 | 2000 to 5000 |  |
| CCc1c(N2CCN(C(=O)c3c(OC(F)F)ncc(C)c3O)CC2)c(=O)c2nn(-c3ccnc(OC)c3)nc2n1CC(=O)NC12CC(C(C)C)(C1)C2 [Compound I-56, 2-(6-{4-[2-(difluoromethoxy)-4-hydroxy-5-methylpyridine-3-carbonyl]piperazin-1-yl}-5-ethyl-2-(2-methoxypyridin-4-yl)-7-oxo-2H,4H,7H-[1,2,3]triazolo[4,5-b]pyridin-4-yl)-N-[3-(propan-2-yl)bicyclo[1.1.1]pentan-1-yl]acetamide] | 5 to 50 | ≤ 500 |  |
| CCc1c(N2CCN(C(=O)c3ncnc(C)c3O)C3CCC[C@H]32)c(=O)c2nn(-c3ccnc(OC)c3)nc2n1CC(=O)NC12CC(C(C)C)(C1)C2 (stereo in doubt) [Compound I-76, rel-2-{6-[(4aR,7aS)-4-(5-hydroxy-6-methylpyrimidine-4-carbonyl)-octahydro-1H-cyclopenta[b]pyrazin-1-yl]-5-ethyl-2-(2-methoxypyridin-4-yl)-7-oxo-2H,4H,7H-[1,2,3]triazolo[4,5-b]pyridin-4-yl}-N-[3-(propan-2-yl)bicyclo[1.1.1]pentan-1-yl]acetamide] | 5 to 50 | 500 to 2000 |  |
| CCc1c(N2CCN(C(=O)c3ncnc(C)c3O)[C@H]3CC[C@@H]32)c(=O)c2nn(-c3ccnc(OC)c3)nc2n1CC(=O)NC12CC(C(C)(F)F)(C1)C2 [Compound I-61, N-[3-(1,1-difluoroethyl)bicyclo[1.1.1]pentan-1-yl]-2-{5-ethyl-6-[(1S,6S)-5-(5-hydroxy-6-methylpyrimidine-4-carbonyl)-2,5-diazabicyclo[4.2.0]octan-2-yl]-2-(2-methoxypyridin-4-yl)-7-oxo-2H,4H,7H-[1,2,3]triazolo[4,5-b]pyridin-4-yl}acetamide] | 5 to 50 |  | ≤ 500 |
| CCc1c(N2CCN(C(=O)c3ncnc(C)c3O)[C@H]3CC[C@@H]32)c(=O)c2nn(-c3cccc(C)n3)nc2n1CC(=O)NC12CC(C(C)C)(C1)C2 [Compound I-179, 2-{5-ethyl-6-[(1S,6S)-5-(5-hydroxy-6-methylpyrimidine-4-carbonyl)-2,5-diazabicyclo[4.2.0]octan-2-yl]-2-(6-methylpyridin-2-yl)-7-oxo-2H,4H,7H-[1,2,3]triazolo[4,5-b]pyridin-4-yl}-N-[3-(propan-2-yl)bicyclo[1.1.1]pentan-1-yl]acetamide] | 5 to 50 | ≤ 500 |  |
| CCc1c(C2=CCN(C(=O)c3ncnc(C)c3O)C[C@@H]2C)c(=O)c2nn(-c3ccnc(OC)c3)nc2n1CC(=O)NC12CC(C(C)C)(C1)C2 (single isomer, unassigned) [Compound I-81] | 5 to 50 | 500 to 2000 |  |
| CCc1c(N2CCN(C(=O)c3cccc4c3OCCN4C)[C@H]3CC[C@@H]32)c(=O)c2nn(C3=CCOCC3)nc2n1CC(=O)NC12CC(C3CC3)(C1)C2 [Compound I-205, N-{3-cyclopropylbicyclo[1.1.1]pentan-1-yl}-2-[2-(3,6-dihydro-2H-pyran-4-yl)-5-ethyl-6-[(1S,6S)-5-(4-methyl-3,4-dihydro-2H-1,4-benzoxazine-8-carbonyl)-2,5-diazabicyclo[4.2.0]octan-2-yl]-7-oxo-2H,4H,7H-[1,2,3]triazolo[4,5-b]pyridin-4-yl]acetamide] | 5 to 50 | 500 to 2000 |  |
| CCc1c(N2CCN(C(=O)c3csnc3OC)[C@H]3CC[C@@H]32)c(=O)c2nn(C3=CCOCC3)nc2n1CC(=O)NC12CC(C(C)C)(C1)C2 [Compound I-175, 2-[2-(3,6-dihydro-2H-pyran-4-yl)-5-ethyl-6-[(1S,6S)-5-(3-methoxy-1,2-thiazole-4-carbonyl)-2,5-diazabicyclo[4.2.0]octan-2-yl]-7-oxo-2H,4H,7H-[1,2,3]triazolo[4,5-b]pyridin-4-yl]-N-[3-(propan-2-yl)bicyclo[1.1.1]pentan-1-yl]acetamide] | 5 to 50 | ≤ 500 |  |
| CCc1c(N2CCN(C(=O)c3ncnc(C)c3O)[C@H]3CC[C@@H]32)c(=O)c2nn(-c3ccnc(OC)c3)nc2n1CC(=O)NC1CC2(CCC(F)(F)CC2)C1 [Compound I-68, N-{7,7-difluorospiro[3.5]nonan-2-yl}-2-{5-ethyl-6-[(1S,6S)-5-(5-hydroxy-6-methylpyrimidine-4-carbonyl)-2,5-diazabicyclo[4.2.0]octan-2-yl]-2-(2-methoxypyridin-4-yl)-7-oxo-2H,4H,7H-[1,2,3]triazolo[4,5-b]pyridin-4-yl}acetamide] | 5 to 50 | > 5000 |  |
| CCc1c(N2CCN(C(=O)c3c(OC)ncc(C)c3O)CC2)c(=O)c2nn(-c3ccnc(OC)c3)nc2n1CC(=O)NC12CC(C(C)C)(C1)C2 [Compound I-114, 2-{5-ethyl-6-[4-(4-hydroxy-2-methoxy-5-methylpyridine-3-carbonyl)piperazin-1-yl]-2-(2-methoxypyridin-4-yl)-7-oxo-2H,4H,7H-[1,2,3]triazolo[4,5-b]pyridin-4-yl}-N-[3-(propan-2-yl)bicyclo[1.1.1]pentan-1-yl]acetamide] | 5 to 50 | ≤ 500 |  |
| CCc1c(N2CCN(C(=O)c3ncnc(C)c3O)[C@H]3CC[C@@H]32)c(=O)c2nn(-c3ccnc(OC)c3)nc2n1CC(=O)Nc1ccc(C(F)F)cc1F [Compound I-83, N-[4-(difluoromethyl)-2-fluorophenyl]-2-{5-ethyl-6-[(1S,6S)-5-(5-hydroxy-6-methylpyrimidine-4-carbonyl)-2,5-diazabicyclo[4.2.0]octan-2-yl]-2-(2-methoxypyridin-4-yl)-7-oxo-2H,4H,7H-[1,2,3]triazolo[4,5-b]pyridin-4-yl}acetamide] | ≤ 5 | ≤ 500 |  |
| CCc1c(N2CCN(C(=O)c3ncnc(C)c3O)CC2)c(=O)c2nn(-c3ccncc3)nc2n1CC(=O)NC12CC(C(C)C)(C1)C2 [Compound I-134, 2-{5-ethyl-6-[4-(5-hydroxy-6-methylpyrimidine-4-carbonyl)piperazin-1-yl]-7-oxo-2-(pyridin-4-yl)-2H,4H,7H-[1,2,3]triazolo[4,5-b]pyridin-4-yl}-N-[3-(propan-2-yl)bicyclo[1.1.1]pentan-1-yl]acetamide] | 5 to 50 | 500 to 2000 |  |
| CCc1c(N2CCN(C(=O)c3c(OC)ccnc3OC)[C@H]3CC[C@@H]32)c(=O)c2nn(C3=CCOCC3)nc2n1CC(=O)NC12CC(C(C)C)(C1)C2 [Compound I-191, 2-[2-(3,6-dihydro-2H-pyran-4-yl)-6-[(1S,6S)-5-(2,4-dimethoxypyridine-3-carbonyl)-2,5-diazabicyclo[4.2.0]octan-2-yl]-5-ethyl-7-oxo-2H,4H,7H-[1,2,3]triazolo[4,5-b]pyridin-4-yl]-N-[3-(propan-2-yl)bicyclo[1.1.1]pentan-1-yl]acetamide] | 5 to 50 | ≤ 500 |  |
| CCc1c(N2CCN(C(=O)c3ncnc(C)c3O)[C@H]3CC[C@@H]32)c(=O)c2nn(-c3ccnc(OC)c3)nc2n1CC(=O)NC12CC(C(F)(F)F)(C1)C2 [Compound I-54, 2-{5-ethyl-6-[(1S,6S)-5-(5-hydroxy-6-methylpyrimidine-4-carbonyl)-2,5-diazabicyclo[4.2.0]octan-2-yl]-2-(2-methoxypyridin-4-yl)-7-oxo-2H,4H,7H-[1,2,3]triazolo[4,5-b]pyridin-4-yl}-N-[3-(trifluoromethyl)bicyclo[1.1.1]pentan-1-yl]acetamide] | 5 to 50 |  | ≤ 500 |
| CCc1c(N2CCN(C(=O)c3c(OC)ncc(C)c3O)[C@H]3CC[C@@H]32)c(=O)c2nn(-c3ccnc(OC)c3)nc2n1CC(=O)NC12CC(C(C)C)(C1)C2 [Compound I-17, 2-(5-ethyl-6-((1S,6S)-5-(4-hydroxy-2-methoxy-5-methylnicotinoyl)-2,5-diazabicyclo[4.2.0]octan-2-yl)-2-(2-methoxypyridin-4-yl)-7-oxo-2,7-dihydro-4H-[1,2,3]triazolo[4,5-b]pyridin-4-yl)-N-(3-isopropylbicyclo[1.1.1]pentan-1-yl)acetamide] | 5 to 50 |  | ≤ 500 |
| CCc1c(N2CCN(C(=O)c3[nH]cnc3C#N)[C@H]3CC[C@@H]32)c(=O)c2nn(C3=CCOCC3)nc2n1CC(=O)NC12CC(C(C)C)(C1)C2 [Compound I-170, 2-{6-[(1S,6S)-5-(4-cyano-1H-imidazole-5-carbonyl)-2,5-diazabicyclo[4.2.0]octan-2-yl]-2-(3,6-dihydro-2H-pyran-4-yl)-5-ethyl-7-oxo-2H,4H,7H-[1,2,3]triazolo[4,5-b]pyridin-4-yl}-N-[3-(propan-2-yl)bicyclo[1.1.1]pentan-1-yl]acetamide] | 5 to 50 | > 5000 |  |
| CCc1c(N2CCN(C(=O)c3c(O)ccc4ncoc34)[C@H]3CC[C@@H]32)c(=O)c2nn(-c3ccnc(OC)c3)nc2n1CC(=O)NC12CC(C(F)(F)F)(C1)C2 [Compound I-4, 2-(5-ethyl-6-((1S,6S)-5-(6-hydroxybenzo[d]oxazole-7-carbonyl)-2,5-diazabicyclo[4.2.0]octan-2-yl)-2-(2-methoxypyridin-4-yl)-7-oxo-2,7-dihydro-4H-[1,2,3]triazolo[4,5-b]pyridin-4-yl)-N-(3-(trifluoromethyl)bicyclo[1.1.1]pentan-1-yl)acetamide] | 5 to 50 |  | ≤ 500 |
